# Source: US20030040105A1, “Microfluidic micromixer” (priority 1999, published 2003)
# Target: T1, streptavidin coated bead bearing fluorescein biotin (Streptomyces avidinii, UniProt P22629)
# T1 construct: purchased Spherotech Inc., Libertyville, Ill
# Assay: unquenching of fluorescein biotin streptavidin beads by native biotin, flow cytometry
# Type: binding
# Settings: streptavidin beads with quenched fluorescein biotin, typical
# Description: Data are plotted as mean channel fluorescence (MCF) versus time for several concentrations of biotin. The binding of fluorescein biotin to streptavidin-coated beads shown in FIG. 12A is characterized by the quenching of fluorescence of particles bound relative to free fluorescein biotin. The quenching is relieved when free biotin is added. The base line fluorescence indicated by the constant signal on the right signifies the “ostrich quenched” fluorescein biotin beads. Typically, this type of quenching, “ostrich quenching,” occurs when the fluorescein moiety associates with the streptavidin-binding pocket adjacent to the biotin-moiety bearing site FIG. 12A. […] The subsequent increase in fluorescence signal on right is caused by homogeneously mixing native biotin with the microspheres causing the unquenching of FITC-biotin in the streptavidin receptor pocket on the bead surface.
# A 200 μL volume suspension of streptavidin coated beads (3.7×10^7 beads/mL) was diluted to 4 mL in TRIS buffer, (100 mM Tris HCl, 150 mM NaCl, 0.1% BSA, 0.02% sodium azide, pH 7.5). Subsequently, 1.0 μL of 8.7×10^−6 M fluorescein biotin solution was added to the beads. The sample was continuously agitated for 20 minutes, then centrifuged and resuspended in 6.0 mL of buffer. The final bead suspension comprised of ˜1.1 million beads/mL with a million fluorescein biotin molecules per bead. […]
# T1 sequence (P22629 25-183): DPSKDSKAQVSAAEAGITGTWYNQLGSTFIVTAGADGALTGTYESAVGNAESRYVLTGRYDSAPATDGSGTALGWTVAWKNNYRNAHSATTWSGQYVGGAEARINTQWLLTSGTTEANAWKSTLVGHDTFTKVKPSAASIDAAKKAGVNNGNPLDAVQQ
compound,measurement,value
"O=C(O)CCCC[C@@H]1SC[C@@H]2NC(=O)N[C@@H]21 [native biotin, Biotin]",increase in fluorescence intensity after mixing with excess native biotin,eight-fold increase
